Laboratory results published in ChEMBL document CHEMBL2021903, “3-Deoxy-3,4-dehydro analogs of XM462. Preparation and activity on sphingolipid metabolism and cell fate” (Bioorg Med Chem, 2012).
Active and inactive are the calls of the source. No cut-off for these calls is given here.

Key:
[1] = target: T1, Sphingomyelin phosphodiesterase (Homo sapiens) (UniProt P17405); test: Inhibition of aSMase expressed in human A549 cells using 6-hexadecanoylamino-4-methylumbelliferylphosphorylcholine as substrate at 40 uM after 2 hrs by spectrophotometry; assay type: cell-based
T1 sequence (whole entry): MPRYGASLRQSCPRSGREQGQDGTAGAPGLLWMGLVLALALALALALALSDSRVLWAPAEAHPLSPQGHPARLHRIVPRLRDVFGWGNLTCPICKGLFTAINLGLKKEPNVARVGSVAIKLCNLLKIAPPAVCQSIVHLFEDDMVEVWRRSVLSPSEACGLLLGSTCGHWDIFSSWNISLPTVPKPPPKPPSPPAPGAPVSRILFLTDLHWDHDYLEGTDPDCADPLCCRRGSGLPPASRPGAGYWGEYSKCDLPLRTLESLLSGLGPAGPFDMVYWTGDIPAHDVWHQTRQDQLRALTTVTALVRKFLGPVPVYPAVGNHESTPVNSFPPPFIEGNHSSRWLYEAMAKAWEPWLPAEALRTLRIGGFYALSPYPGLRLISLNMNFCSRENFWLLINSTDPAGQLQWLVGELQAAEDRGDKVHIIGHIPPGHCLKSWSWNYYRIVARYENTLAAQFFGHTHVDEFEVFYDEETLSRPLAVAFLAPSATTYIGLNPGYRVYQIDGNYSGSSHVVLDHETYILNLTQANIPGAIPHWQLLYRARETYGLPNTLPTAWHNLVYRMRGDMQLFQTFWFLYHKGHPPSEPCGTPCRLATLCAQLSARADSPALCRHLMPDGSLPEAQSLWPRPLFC

[2] = target: T2, Lysosomal acid glucosylceramidase (Homo sapiens) (UniProt P04062); test: Inhibition of glucocerebrosidase in human A549 cells using 4-methylumbelliferyl beta-D-glucoside as substrate at 40 uM after 45 mins by spectrophotometry; assay type: cell-based
T2 sequence (whole entry): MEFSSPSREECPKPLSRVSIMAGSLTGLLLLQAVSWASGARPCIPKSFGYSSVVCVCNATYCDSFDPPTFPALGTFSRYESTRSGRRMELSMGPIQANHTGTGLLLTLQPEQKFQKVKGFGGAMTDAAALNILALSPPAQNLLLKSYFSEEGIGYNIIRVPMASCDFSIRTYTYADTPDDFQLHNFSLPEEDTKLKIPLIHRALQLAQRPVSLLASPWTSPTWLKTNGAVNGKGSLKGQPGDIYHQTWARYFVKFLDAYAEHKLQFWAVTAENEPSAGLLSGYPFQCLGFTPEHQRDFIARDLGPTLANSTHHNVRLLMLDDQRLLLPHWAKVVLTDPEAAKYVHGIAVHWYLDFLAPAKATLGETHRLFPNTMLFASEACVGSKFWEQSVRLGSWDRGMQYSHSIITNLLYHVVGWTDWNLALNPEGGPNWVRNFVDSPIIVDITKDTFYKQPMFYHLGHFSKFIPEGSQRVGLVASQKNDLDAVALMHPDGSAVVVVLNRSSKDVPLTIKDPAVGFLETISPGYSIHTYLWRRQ

[3] = target: T3, Sphingolipid delta(4)-desaturase DES1 (Homo sapiens, UniProt O15121); test: Inhibition of Des1 in human HCT116 cells assessed as formation of CerC6NBD from dhCerC6NBD after 4 hrs by HPLC-FD analysis
T3 sequence (O15121 whole entry): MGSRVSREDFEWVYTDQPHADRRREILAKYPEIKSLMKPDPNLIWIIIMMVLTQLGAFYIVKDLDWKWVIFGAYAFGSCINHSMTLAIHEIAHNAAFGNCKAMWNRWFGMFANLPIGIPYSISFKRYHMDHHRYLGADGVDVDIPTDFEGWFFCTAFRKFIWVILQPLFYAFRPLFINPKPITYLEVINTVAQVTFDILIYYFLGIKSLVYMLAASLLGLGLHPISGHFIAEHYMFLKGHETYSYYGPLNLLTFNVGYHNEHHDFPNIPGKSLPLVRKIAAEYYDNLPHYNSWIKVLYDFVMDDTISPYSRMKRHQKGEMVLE

[4] = target: T1, Sphingomyelin phosphodiesterase (Homo sapiens); test: Inhibition of aSMase expressed in human A549 cells using 6-hexadecanoylamino-4-methylumbelliferylphosphorylcholine as substrate at 10 uM after 2 hrs by spectrophotometry; assay type: cell-based
[5] = target: T2, Lysosomal acid glucosylceramidase (Homo sapiens); test: Inhibition of glucocerebrosidase in human A549 cells using 4-methylumbelliferyl beta-D-glucoside as substrate at 10 uM after 45 mins by spectrophotometry; assay type: cell-based
[6] = target: T1, Sphingomyelin phosphodiesterase (Homo sapiens); test: Inhibition of aSMase expressed in human A549 cells using 6-hexadecanoylamino-4-methylumbelliferylphosphorylcholine as substrate at 20 uM after 2 hrs by spectrophotometry; assay type: cell-based
[7] = target: T2, Lysosomal acid glucosylceramidase (Homo sapiens); test: Inhibition of glucocerebrosidase in human A549 cells using 4-methylumbelliferyl beta-D-glucoside as substrate at 20 uM after 45 mins by spectrophotometry; assay type: cell-based

## CCCCCCCCCCCCCS/C=C/[C@H](CO)NC(=O)c1ccc(C(C)(C)C)cc1
[1]
  inhibition: inactive
[2]
  inhibition: inactive

## CCCCCCCCCCCCCS/C=C/[C@H](CO)NC(=O)CCCCCCC
[3]
  IC50: 18.8 µM
[4]
  inhibition: inactive
[5]
  inhibition: inactive

## CCCCCCCCCCCCCS/C=C/[C@H](CO)NC(=O)C(C)(C)C
[6]
  inhibition: inactive
[7]
  inhibition: inactive
